Laboratory results published in article PMC5391474, “Investigation of the Role of Protein Kinase D in Human Rhinovirus Replication” (Journal of Virology, 2017).

Key:
Experiment in all cases: biochemical
Parameters in all cases: in vitro kinase selectivity panel, protein and lipid kinases, single concentration, ATP at Km
Settings in all cases: ATP at Km
ARK5(h) = molecular target: T1, ARK5(h) (Homo sapiens, UniProt O60285)
T1 construct: gene NUAK1
Method: (§1) CRT0066101 was described previously ([48]) and was purchased for this study from Tocris, with a purity of 99.9%. CRT0066101 (XX-209) and compound XX-050 were synthesized as previously described ([68]). CRT0066051 (Y-095) was also synthesized as previously described ([69]). […] CRT0066101 can also be obtained in larger quantities from Ximbio. Inhibitors were tested in in vitro PKD kinase assays and cellular assays on PANC1 cells as previously described ([48]). The selectivity of the three PKD inhibitors was determined against a panel of protein and lipid kinases by Eurofins and the MRC PPU International Centre for Kinase Profiling (http://www.kinase-screen.mrc.ac.uk), respectively. Each inhibitor was tested at a single concentration of 1 μM and at an ATP concentration equivalent to the Km for each kinase. Having shown that HRV infection appears to activate PKD, we went on to explore the influence of chemical inhibitors of PKD on HRV replication. The compound CRT0066101 is a specific and potent PKD inhibitor that has been used in studies exploring its potential as an anticancer target ([48], [51]). This inhibitor has a 50% inhibitory concentration (IC50) of 1 nM against purified PKD in biochemical assays and a 50% effective concentration (EC50) of 1 μM in a cell-based assay (Table 1). We pretreated HeLa cells with increasing concentrations of the drug for 1 h followed by infection with HRV16. Viral replication was subsequently measured at 6 hpi by quantitative real-time PCR (qRT-PCR) (Fig. 2A) and by Western blotting using an antibody against the viral nonstructural protein 2C (Fig. 2B). […] Furthermore, we tested two novel and structurally different PKD inhibitors (CRT0066051 and XX-050) (Table 1) and confirmed that they too inhibited HRV 2C expression although with different potencies (Fig. 2D). Kinase selectivity profiling of all three PKD inhibitors was performed against a panel of protein and lipid kinases at a drug concentration of 1 μM and at an ATP concentration equivalent to the Km of each kinase (see Table S1 in the supplemental material). […] Since PKD is known to be involved in regulating the architecture of the Golgi apparatus, we confirmed the pharmacodynamic effect of these inhibitors by demon

Abl(h) = molecular target: T2, Abl(h) (Homo sapiens, UniProt P00519)
T2 construct: gene ABL1
Method: as §1

Axl(h) = Axl(h) (Homo sapiens, UniProt P30530)
Axl(h), sequence (P30530 whole entry): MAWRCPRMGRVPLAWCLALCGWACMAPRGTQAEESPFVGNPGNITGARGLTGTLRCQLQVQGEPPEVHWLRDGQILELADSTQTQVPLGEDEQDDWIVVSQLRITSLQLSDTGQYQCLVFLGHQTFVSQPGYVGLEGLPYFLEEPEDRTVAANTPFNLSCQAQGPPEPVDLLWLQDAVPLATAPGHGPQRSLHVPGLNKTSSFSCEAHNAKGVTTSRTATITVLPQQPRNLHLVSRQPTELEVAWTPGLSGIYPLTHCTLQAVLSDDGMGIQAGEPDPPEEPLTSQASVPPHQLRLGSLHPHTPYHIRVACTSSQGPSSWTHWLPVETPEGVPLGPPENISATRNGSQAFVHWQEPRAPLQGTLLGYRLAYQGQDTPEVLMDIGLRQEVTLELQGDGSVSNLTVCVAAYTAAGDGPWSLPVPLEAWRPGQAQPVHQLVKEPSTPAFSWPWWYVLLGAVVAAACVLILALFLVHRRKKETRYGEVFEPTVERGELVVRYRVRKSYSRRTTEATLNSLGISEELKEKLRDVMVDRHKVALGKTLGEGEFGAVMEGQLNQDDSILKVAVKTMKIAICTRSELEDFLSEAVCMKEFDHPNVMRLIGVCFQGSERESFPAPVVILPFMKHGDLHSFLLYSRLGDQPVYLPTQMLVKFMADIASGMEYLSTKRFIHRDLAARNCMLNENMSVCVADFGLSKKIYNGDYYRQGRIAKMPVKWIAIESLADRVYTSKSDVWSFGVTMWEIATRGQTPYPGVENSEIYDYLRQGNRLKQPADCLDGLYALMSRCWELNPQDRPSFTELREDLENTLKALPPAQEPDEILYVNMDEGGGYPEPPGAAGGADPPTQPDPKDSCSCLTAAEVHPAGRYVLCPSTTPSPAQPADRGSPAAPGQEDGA
Method: as §1

CK1δ(h) = molecular target: T3, CK1δ(h) (Homo sapiens, UniProt P48730)
T3 construct: gene CSNK1D
T3 sequence (P48730 whole entry): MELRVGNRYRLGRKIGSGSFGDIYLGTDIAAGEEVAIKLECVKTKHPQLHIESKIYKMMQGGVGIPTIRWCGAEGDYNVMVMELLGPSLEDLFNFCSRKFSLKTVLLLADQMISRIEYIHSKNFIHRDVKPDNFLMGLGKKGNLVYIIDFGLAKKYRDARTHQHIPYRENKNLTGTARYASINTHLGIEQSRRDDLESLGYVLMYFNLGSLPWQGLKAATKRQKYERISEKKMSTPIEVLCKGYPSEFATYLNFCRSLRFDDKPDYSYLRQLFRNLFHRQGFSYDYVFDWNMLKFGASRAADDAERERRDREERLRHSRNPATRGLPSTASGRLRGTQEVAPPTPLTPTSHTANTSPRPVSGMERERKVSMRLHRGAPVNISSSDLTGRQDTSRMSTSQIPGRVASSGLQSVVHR
Method: as §1

DAPK1(h) = DAPK1(h) (Homo sapiens, UniProt P53355)
Method: as §1

DGKG = DGKG (Homo sapiens, UniProt P49619)
Method: as §1

DYRK2(h) = DYRK2(h) (Homo sapiens, UniProt Q92630)
DYRK2(h), sequence (Q92630 whole entry): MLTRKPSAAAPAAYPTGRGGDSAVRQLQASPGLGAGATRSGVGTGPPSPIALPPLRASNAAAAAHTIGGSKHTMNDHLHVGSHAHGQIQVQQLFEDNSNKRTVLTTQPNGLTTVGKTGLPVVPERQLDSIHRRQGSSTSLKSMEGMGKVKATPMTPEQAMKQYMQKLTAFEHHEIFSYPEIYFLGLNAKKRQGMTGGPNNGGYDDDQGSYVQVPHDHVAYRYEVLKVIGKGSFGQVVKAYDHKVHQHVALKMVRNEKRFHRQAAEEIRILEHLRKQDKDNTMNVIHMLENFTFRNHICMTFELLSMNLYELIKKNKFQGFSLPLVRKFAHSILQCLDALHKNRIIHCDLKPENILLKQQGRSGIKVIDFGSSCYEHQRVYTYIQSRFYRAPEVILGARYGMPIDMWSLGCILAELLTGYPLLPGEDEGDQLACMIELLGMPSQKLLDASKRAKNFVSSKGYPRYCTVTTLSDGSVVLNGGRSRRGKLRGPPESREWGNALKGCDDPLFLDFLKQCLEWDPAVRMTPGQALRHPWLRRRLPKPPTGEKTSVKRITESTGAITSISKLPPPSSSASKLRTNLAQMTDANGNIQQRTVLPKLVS
Method: as §1

EphB4(h) = EphB4(h) (Homo sapiens, UniProt P54760)
Method: as §1

ErbB4(h) = ErbB4(h) (Homo sapiens, UniProt Q15303)
ErbB4(h), sequence (Q15303 whole entry): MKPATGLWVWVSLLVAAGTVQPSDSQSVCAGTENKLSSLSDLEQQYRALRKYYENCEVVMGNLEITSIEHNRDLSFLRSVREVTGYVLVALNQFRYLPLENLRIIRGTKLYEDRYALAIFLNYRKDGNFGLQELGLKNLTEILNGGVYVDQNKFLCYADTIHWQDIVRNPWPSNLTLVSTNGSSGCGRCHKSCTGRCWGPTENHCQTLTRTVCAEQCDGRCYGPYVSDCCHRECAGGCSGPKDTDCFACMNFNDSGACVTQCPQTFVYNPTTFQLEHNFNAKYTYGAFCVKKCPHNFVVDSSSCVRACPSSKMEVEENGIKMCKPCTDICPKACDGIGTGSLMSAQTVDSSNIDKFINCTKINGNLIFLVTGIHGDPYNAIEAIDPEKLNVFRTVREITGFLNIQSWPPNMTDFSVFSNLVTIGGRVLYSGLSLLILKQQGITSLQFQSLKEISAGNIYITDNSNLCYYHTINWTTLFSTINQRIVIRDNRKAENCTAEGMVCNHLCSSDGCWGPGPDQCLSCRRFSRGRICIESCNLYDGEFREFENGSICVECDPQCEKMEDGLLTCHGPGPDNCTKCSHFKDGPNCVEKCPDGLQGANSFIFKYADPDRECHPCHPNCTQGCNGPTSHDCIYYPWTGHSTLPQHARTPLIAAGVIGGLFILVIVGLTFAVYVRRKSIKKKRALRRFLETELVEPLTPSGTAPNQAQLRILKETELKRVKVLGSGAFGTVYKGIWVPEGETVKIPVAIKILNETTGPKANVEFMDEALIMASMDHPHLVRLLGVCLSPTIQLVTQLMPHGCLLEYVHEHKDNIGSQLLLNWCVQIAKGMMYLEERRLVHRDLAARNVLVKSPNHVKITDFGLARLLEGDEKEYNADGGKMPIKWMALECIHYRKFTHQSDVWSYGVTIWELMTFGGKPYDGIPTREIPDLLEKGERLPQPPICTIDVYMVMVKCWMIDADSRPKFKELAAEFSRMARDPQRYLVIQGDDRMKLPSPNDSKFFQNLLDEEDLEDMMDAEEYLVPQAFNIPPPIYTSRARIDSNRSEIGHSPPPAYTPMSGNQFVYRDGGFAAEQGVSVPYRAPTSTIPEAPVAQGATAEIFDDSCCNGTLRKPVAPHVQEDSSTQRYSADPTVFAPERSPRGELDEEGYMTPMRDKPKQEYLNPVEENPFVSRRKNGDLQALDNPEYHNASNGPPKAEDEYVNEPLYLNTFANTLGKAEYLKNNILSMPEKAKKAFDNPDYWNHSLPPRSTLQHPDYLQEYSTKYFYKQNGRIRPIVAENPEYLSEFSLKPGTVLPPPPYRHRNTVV
Method: as §1

Flt1(h) = Flt1(h) (Homo sapiens, UniProt P17948)
Method: as §1

Flt3(D835Y)(h) = Flt3(D835Y)(h) (Homo sapiens, UniProt P36888, D835Y)
Method: as §1

Flt3(h) = Flt3(h) (Homo sapiens, UniProt P36888)
Method: as §1

Fms(h) = molecular target: T4, Fms(h) (Homo sapiens, UniProt P07333)
T4 construct: gene CSF1R
Method: as §1

PIK3CA / p85 (h) = molecular target: T5, PIK3CA / p85 (h) (Homo sapiens, UniProt P42336)
T5 construct: p110alpha/p85
Method: as §1

PIK3CG / p85 (h) = molecular target: T6, PIK3CG / p85 (h) (Homo sapiens, UniProt P48736)
T6 construct: p110gamma/p85 as printed
T6 sequence (P48736 whole entry): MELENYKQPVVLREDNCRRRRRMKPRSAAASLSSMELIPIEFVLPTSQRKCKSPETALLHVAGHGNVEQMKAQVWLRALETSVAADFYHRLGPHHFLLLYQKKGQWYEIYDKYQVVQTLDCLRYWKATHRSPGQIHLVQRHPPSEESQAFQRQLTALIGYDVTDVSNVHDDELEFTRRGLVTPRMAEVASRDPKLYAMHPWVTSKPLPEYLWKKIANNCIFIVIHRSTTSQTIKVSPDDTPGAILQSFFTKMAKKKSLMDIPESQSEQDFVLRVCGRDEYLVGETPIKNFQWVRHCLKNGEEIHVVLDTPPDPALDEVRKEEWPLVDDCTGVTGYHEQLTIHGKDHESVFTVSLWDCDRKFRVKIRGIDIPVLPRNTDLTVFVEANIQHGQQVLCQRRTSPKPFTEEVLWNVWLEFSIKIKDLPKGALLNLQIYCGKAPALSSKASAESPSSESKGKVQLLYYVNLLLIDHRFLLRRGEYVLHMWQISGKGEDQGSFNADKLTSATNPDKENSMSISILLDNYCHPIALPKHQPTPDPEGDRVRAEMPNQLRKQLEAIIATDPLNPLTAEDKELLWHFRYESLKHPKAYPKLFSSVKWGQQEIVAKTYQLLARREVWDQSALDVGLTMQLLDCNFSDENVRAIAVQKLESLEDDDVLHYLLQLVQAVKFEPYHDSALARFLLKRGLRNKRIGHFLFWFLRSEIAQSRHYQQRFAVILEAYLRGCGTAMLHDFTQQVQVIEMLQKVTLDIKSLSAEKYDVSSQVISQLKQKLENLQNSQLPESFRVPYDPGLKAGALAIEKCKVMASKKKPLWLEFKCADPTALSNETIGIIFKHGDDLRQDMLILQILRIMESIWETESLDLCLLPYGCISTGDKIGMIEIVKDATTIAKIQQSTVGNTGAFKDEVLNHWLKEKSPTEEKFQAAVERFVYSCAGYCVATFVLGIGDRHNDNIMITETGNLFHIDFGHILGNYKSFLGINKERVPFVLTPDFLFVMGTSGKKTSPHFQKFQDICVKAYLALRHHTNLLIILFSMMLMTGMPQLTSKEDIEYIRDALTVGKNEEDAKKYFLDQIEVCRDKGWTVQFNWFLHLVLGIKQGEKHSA
T6 sequence (P27986 whole entry partner): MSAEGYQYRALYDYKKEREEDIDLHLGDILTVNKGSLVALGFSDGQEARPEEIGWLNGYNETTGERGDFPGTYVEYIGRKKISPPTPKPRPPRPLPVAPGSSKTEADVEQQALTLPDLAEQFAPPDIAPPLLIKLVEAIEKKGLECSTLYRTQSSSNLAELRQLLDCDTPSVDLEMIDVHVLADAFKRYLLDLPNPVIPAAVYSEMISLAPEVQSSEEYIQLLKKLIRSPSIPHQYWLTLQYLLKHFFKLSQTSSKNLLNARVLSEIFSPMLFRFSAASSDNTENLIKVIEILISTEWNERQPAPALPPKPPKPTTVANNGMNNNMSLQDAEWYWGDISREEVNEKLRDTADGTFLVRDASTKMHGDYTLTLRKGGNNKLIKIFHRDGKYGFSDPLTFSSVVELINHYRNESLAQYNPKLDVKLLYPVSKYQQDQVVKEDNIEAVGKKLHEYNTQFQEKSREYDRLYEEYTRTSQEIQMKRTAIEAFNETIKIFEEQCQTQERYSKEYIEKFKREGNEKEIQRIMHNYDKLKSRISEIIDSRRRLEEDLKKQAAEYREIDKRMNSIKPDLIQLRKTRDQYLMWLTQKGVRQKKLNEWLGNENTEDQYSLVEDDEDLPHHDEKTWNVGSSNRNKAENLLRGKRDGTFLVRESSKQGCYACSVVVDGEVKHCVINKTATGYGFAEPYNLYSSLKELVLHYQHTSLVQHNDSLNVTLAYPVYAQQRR
Method: as §1

PKD2(h) = molecular target: T7, PKD2(h) (Homo sapiens, UniProt Q9BZL6)
T7 construct: gene PRKD2
Method: as §1

ROCK-II(h) = molecular target: T8, ROCK-II(h) (Homo sapiens, UniProt O75116)
T8 construct: gene ROCK2
Method: as §1

Snk(h) = molecular target: T9, Snk(h) (Homo sapiens, UniProt Q9NYY3)
T9 construct: gene PLK2
Method: as §1

CC[C@@H](N)CNc1ccnc(-c2cc(-c3cnn(C)c3)ccc2O)n1 [CRT0066101]
inhibition at 1 µM (ARK5(h)): 49%
inhibition at 1 µM (Abl(h)): -13%
inhibition at 1 µM (Axl(h)): 39%
inhibition at 1 µM (CK1δ(h)): 13%
inhibition at 1 µM (DAPK1(h)): -8%
inhibition at 1 µM (DGKG): -3%
inhibition at 1 µM (DYRK2(h)): 94%
inhibition at 1 µM (EphB4(h)): 25%
inhibition at 1 µM (ErbB4(h)): 3%
inhibition at 1 µM (Flt1(h)): -6%
inhibition at 1 µM (Flt3(D835Y)(h)): 80%
inhibition at 1 µM (Flt3(h)): 4%
inhibition at 1 µM (Fms(h)): 12%
inhibition at 1 µM (PIK3CA / p85 (h)): -1%
inhibition at 1 µM (PIK3CG / p85 (h)): -1%
inhibition at 1 µM (PKD2(h)): 96%
inhibition at 1 µM (ROCK-II(h)): 28%
inhibition at 1 µM (Snk(h)): -1%
